The compounds below were run on post-synaptic Dopamine (D.A.) receptors (assay: Inhibition of apomorphine induced climbing in the mouse). Conditions: dose for 50% inhibition of apomorphine (1 mg/kg s.c.) induced climbing, male CD1 mice, ½ hour post dosing po; 30 min.
Type: in vivo

Compound	ED50
O=C1c2ccc(Cl)cc2CN1[C@@H]1C[C@H]2CCC[C@@H](C1)N2Cc1ccc(F)cc1 [Compound E3]	1.2 mg/kg
4-Chloro- and 6-Chloro-5-amino-2-(3β-N-(9-(4^1-methylbenzyl) -9-azabicyclo[3.3.1]nonyl)]phthalimidine [Compound E8]	0.5 mg/kg
Cc1ccc(CN2[C@@H]3CCC[C@H]2C[C@H](N2Cc4cc(N)ccc4C2=O)C3)cc1 [Compound E6, 5-Amino-2-[3β-N-(9-(4^1-methylbenzyl)-9-azabicyclo[3.3.1]nonyl)]phthalimidine]	0.3 mg/kg
Nc1ccc2c(c1)CN([C@@H]1C[C@H]3CCC[C@@H](C1)N3Cc1ccc(F)cc1)C2=O [Compound E5, 5-Amino-2-(3β-N-(9-(4^1-fluorobenzyl)-9-azabicyclo[3.3.1]nonyl)]phthalimidine]	0.6 mg/kg
Cc1ccc(CN2[C@@H]3CCC[C@H]2C[C@H](N2Cc4cc(Cl)ccc4C2=O)C3)cc1 [Compound E2]	0.5 mg/kg
Cc1ccc(CN2[C@@H]3CCC[C@H]2C[C@H](N2Cc4ccccc4C2=O)C3)cc1 [Compound E1]	1.1 mg/kg

Same assay, conditions: subcutaneous dosing; dose for 50% inhibition of apomorphine (1 mg/kg s.c.) induced climbing, male CD1 mice; 30 min

Compound	ED50
CN(C)S(=O)(=O)c1ccc2c(c1)C(=O)N([C@@H]1C[C@H]3CC[C@@H](C1)N3Cc1ccccc1)C2 [Compound E9, 6-Dimethylaminosulphonyl-2-N-[3β(8-benzyl-8-azabicyclo [3.2.1]octyl)]phthalimidine]	3.0 (subcutaneous dosing) mg/kg
